Assays:
HCT-116 [1] = test: Inhibition of colony formation in human HCT-116 cells assessed as assessed as fold change in IC50 in presence of ionizing radiation; type: functional
[2] = Volume of distribution at steady state in Balb/C mouse at 10 mg/kg,po measured upto 48 hrs by LC-MS/MS analysis; type: ADME, organism-based; settings: in vivo
HCT-116 [3] = test: Induction of apoptosis in human HCT-116 cells assessed as viable cells at 4 uM measured after 2 days in presence of irinotecan by AnnexinV-FITC/PI staining based analysis (reference value: 72.8%); type: functional; settings: HCT-116, 48 h, time 2 day, read-out: Activity

For CC(C)NC(=O)N(C)c1cnc2ccc(-c3ccc(OCCCN4CCCCC4)nc3)cc2n1, the “fold change (FC)” value (HCT-116 [1]) was 750, the Vdss [2] was 3.52 L/kg and the viability at 4 µM (HCT-116 [3]) was 7.37%.
